{"source": "patent US7138231B2", "about": "(priority 2000, dated 2006)", "key": {"[1]": {"system": "HIV-1 patient-derived protease and reverse transcriptase segments (N88S in PR) in resistance test vectors", "assay": "Phenotypic drug susceptibility test with resistance test vectors from patient samples", "format": "cell-based", "settings": "patient sample RTV-627"}, "[2]": {"system": "HIV-1 patient viruses with protease L90M", "assay": "Phenotypic susceptibility profiles of 58 patient virus samples with L90M, no other primary mutations", "format": "cell-based", "settings": "for % w with SQV FC > 2.5: L90M; for % FC > 2.5: SQV"}, "[3]": {"system": "HIV-1 variants with protease substitutions", "settings": "both substitutions G48V-L90M; cited from earlier work"}, "[4]": {"system": "HIV-1 patient viruses with protease L90M", "assay": "Phenotypic susceptibility profiles of 333 patient virus samples with L90M (not 30 or 50)", "format": "cell-based", "settings": "for % with SQV FC > 2.5 / wt % > 2.5 / wt % > 10: L90M"}, "HIV-1": {"system": "HIV-1", "settings": "cited from earlier work"}, "[5]": {"system": "HIV-1 protease site-directed mutants (N88S, L63P, V77I, M46L) in resistance test vector", "assay": "Phenotypic susceptibility assay of resistance test vectors with site-directed mutations in PR", "excerpt": "The resistance test vectors containing a functional luciferase gene cassette were constructed and host cells were transfected with the resistance test vector DNA. […] The resistance test vector viral particles produced by transfecting the resistance test vector DNA into host cells, either in the presence or absence of protease inhibitors, were used to infect target host cells grown either in the absence of NRTI or NNRTI or in the presence of increasing concentrations of the drug. Luciferase activity in infected target host cells in the presence of drug was compared to the luciferase activity in infected target host cells in the absence of drug. […] The IC50 values were determined by plotting percent drug inhibition vs. log10 drug concentration.\nHost cells were seeded in 10-cm-diameter dishes and were transfected one day after plating with resistance test vector plasmid DNA and the envelope expression vector. Transfections were performed using a calcium-phosphate co-precipitation procedure. The cell culture media containing the DNA precipitate was replaced with fresh medium, from one to 24 hours, after transfection. Cell culture media containing resistance test vector viral particles was harvested one to four days after transfection and was passed through a 0.45-mm filter before being stored at −80° C. HIV capsid protein (p24) levels in the harvested cell culture media were determined by an EIA method as described by the manufacturer (SIAC; Frederick, Md.). Before infection, target cells (293 and 293/T) were plated in cell culture media. Control infections were performed using cell culture media from mock transfections (no DNA) or transfections containing the resistance test vector plasmid DNA without the envelope expression plasmid. One to three or more days after infection the media was removed and cell lysis buffer (Promega) was added to each well. Cell lysates were assayed for luciferase activity. The inhibitory effect of the drug was determined using the following equation: % luciferase inhibition=[1−(RLUluc[drug]RLUluc)]×100 where RLUluc [drug] is the relative light unit of luciferase activity in infected cells in the presence of drug and RLUluc is the Relative Light Unit of luciferase activity in infected cells in the absence of drug. IC50 values were obtained from the sigmoidal curves that were generated from the data by plotting the percent inhibition of luciferase activity vs. the log10 drug concentration.\nMutations are introduced into the resistance test vector through any of the widely known methods for site-directed mutagenesis. […] A resistance test vector containing the specific mutation or group of mutations are then tested using the phenotypic susceptibility assay described above and the susceptibility profile is compared to that of a genetically defined wild-type (drug susceptible) resistance test vector which lacks the specific mutations.\nResistance test vectors were constructed containing the N88S mutation alone and in combination with other substitutions in PR (L63P, V77I and M46L) known to modulate the HIV susceptibility to PRIs. Mutations were introduced into the resistance test vector using the mega-primer PCR method for site-directed mutagenesis."}}, "data": [{"smiles": "CC(C)(C)NC(=O)[C@@H]1C[C@@H]2CCCC[C@@H]2CN1C[C@@H](O)[C@H](Cc1ccccc1)NC(=O)[C@H](CC(N)=O)NC(=O)c1ccc2ccccc2n1", "note": "[saquinavir]", "values": [{"measurement": "change in susceptibility", "setting": "[1]", "value": "increase"}, {"measurement": "% w with SQV FC > 2.5", "setting": "[2]; number of secondary mutations 0", "value": 53, "unit": "%"}, {"measurement": "% w with SQV FC > 2.5", "setting": "[2]; number of secondary mutations 1", "value": 47, "unit": "%"}, {"measurement": "% w with SQV FC > 2.5", "setting": "[2]; number of secondary mutations 2", "value": 43, "unit": "%"}, {"measurement": "% w with SQV FC > 2.5", "setting": "[2]; number of secondary mutations 3", "value": 68, "unit": "%"}, {"measurement": "% w with SQV FC > 2.5", "setting": "[2]; number of secondary mutations 4", "value": 77, "unit": "%"}, {"measurement": "% w with SQV FC > 2.5", "setting": "[2]; number of secondary mutations 5", "value": 100, "unit": "%"}, {"measurement": "% w with SQV FC > 2.5", "setting": "[2]; number of secondary mutations 6", "value": 100, "unit": "%"}, {"measurement": "% FC > 2.5", "setting": "[2]; L90M + mutation at position 10", "value": 65, "unit": "%"}, {"measurement": "% FC > 2.5", "setting": "[2]; L90M + mutation at position 71", "value": 78, "unit": "%"}, {"measurement": "% FC > 2.5", "setting": "[2]; L90M + mutation at position 71, listed as SQV", "value": 78, "unit": "%"}, {"measurement": "% FC > 2.5", "setting": "[2]; L90M + mutation at position 73", "value": 79, "unit": "%"}, {"measurement": "% FC > 2.5", "setting": "[2]; L90M + mutation at position 73, listed as SQV", "value": 79, "unit": "%"}, {"measurement": "% FC > 2.5", "setting": "[2]; L90M + mutation at position 77", "value": 76, "unit": "%"}, {"measurement": "% FC > 2.5", "setting": "[2]; listed as 90: all viruses with L90M", "value": 55, "unit": "%"}, {"measurement": "loss of susceptibility", "setting": "[3]", "value": "> 100", "unit": "fold"}, {"measurement": "% with SQV FC > 2.5", "setting": "[4]; number of secondary mutations (weighted count) 0", "value": 23.5, "unit": "%"}, {"measurement": "% with SQV FC > 2.5", "setting": "[4]; number of secondary mutations (weighted count) 1", "value": 25.0, "unit": "%"}, {"measurement": "% with SQV FC > 2.5", "setting": "[4]; number of secondary mutations (weighted count) 2", "value": 69.4, "unit": "%"}, {"measurement": "% with SQV FC > 2.5", "setting": "[4]; number of secondary mutations (weighted count) 3", "value": 85.7, "unit": "%"}, {"measurement": "% with SQV FC > 2.5", "setting": "[4]; number of secondary mutations (weighted count) 4", "value": 97.3, "unit": "%"}, {"measurement": "% with SQV FC > 2.5", "setting": "[4]; number of secondary mutations (weighted count) 5", "value": 100, "unit": "%"}, {"measurement": "% with SQV FC > 2.5", "setting": "[4]; number of secondary mutations (weighted count) 6 or more", "value": 100, "unit": "%"}, {"measurement": "wt % > 2.5", "setting": "[4]; Saquinavir FC>2.5, position 10 wild type", "value": 56.4, "unit": "%"}, {"measurement": "wt % > 2.5", "setting": "[4]; Saquinavir FC>2.5, position 20 wild type", "value": 73.9, "unit": "%"}, {"measurement": "wt % > 2.5", "setting": "[4]; Saquinavir FC>2.5, position 33 wild type", "value": 77.4, "unit": "%"}, {"measurement": "wt % > 2.5", "setting": "[4]; Saquinavir FC>2.5, position 36 wild type", "value": 74.9, "unit": "%"}, {"measurement": "wt % > 2.5", "setting": "[4]; Saquinavir FC>2.5, position 37 wild type", "value": 76.4, "unit": "%"}, {"measurement": "wt % > 2.5", "setting": "[4]; Saquinavir FC>2.5, position 48 wild type", "value": 78.1, "unit": "%"}, {"measurement": "wt % > 2.5", "setting": "[4]; Saquinavir FC>2.5, position 53 wild type", "value": 77.3, "unit": "%"}, {"measurement": "wt % > 2.5", "setting": "[4]; Saquinavir FC>2.5, position 54 wild type", "value": 68.1, "unit": "%"}, {"measurement": "wt % > 2.5", "setting": "[4]; Saquinavir FC>2.5, position 63 wild type", "value": 37.5, "unit": "%"}, {"measurement": "wt % > 2.5", "setting": "[4]; Saquinavir FC>2.5, position 64 wild type", "value": 83.1, "unit": "%"}, {"measurement": "wt % > 2.5", "setting": "[4]; Saquinavir FC>2.5, position 66 wild type", "value": 78.4, "unit": "%"}, {"measurement": "wt % > 2.5", "setting": "[4]; Saquinavir FC>2.5, position 71 wild type", "value": 58.0, "unit": "%"}, {"measurement": "wt % > 2.5", "setting": "[4]; Saquinavir FC>2.5, position 73 wild type", "value": 73.6, "unit": "%"}, {"measurement": "wt % > 2.5", "setting": "[4]; Saquinavir FC>2.5, position 84 wild type", "value": 70.7, "unit": "%"}, {"measurement": "wt % > 2.5", "setting": "[4]; Saquinavir FC>2.5, position 93 wild type", "value": 85.6, "unit": "%"}, {"measurement": "mt % > 2.5", "setting": "[4]; Saquinavir FC>2.5, listed as 90: all samples with L90M", "value": 79.3, "unit": "%"}, {"measurement": "wt % > 10", "setting": "[4]; Saquinavir FC>10, position 10 wild type", "value": 20.5, "unit": "%"}, {"measurement": "wt % > 10", "setting": "[4]; Saquinavir FC>10, position 20 wild type", "value": 33.9, "unit": "%"}, {"measurement": "wt % > 10", "setting": "[4]; Saquinavir FC>10, position 23 wild type", "value": 42.4, "unit": "%"}, {"measurement": "wt % > 10", "setting": "[4]; Saquinavir FC>10, position 35 wild type", "value": 38.8, "unit": "%"}, {"measurement": "wt % > 10", "setting": "[4]; Saquinavir FC>10, position 36 wild type", "value": 34.2, "unit": "%"}, {"measurement": "wt % > 10", "setting": "[4]; Saquinavir FC>10, position 48 wild type", "value": 40.8, "unit": "%"}, {"measurement": "wt % > 10", "setting": "[4]; Saquinavir FC>10, position 53 wild type", "value": 39.8, "unit": "%"}, {"measurement": "wt % > 10", "setting": "[4]; Saquinavir FC>10, position 54 wild type", "value": 32.8, "unit": "%"}, {"measurement": "wt % > 10", "setting": "[4]; Saquinavir FC>10, position 58 wild type", "value": 41.6, "unit": "%"}, {"measurement": "wt % > 10", "setting": "[4]; Saquinavir FC>10, position 62 wild type", "value": 38.5, "unit": "%"}, {"measurement": "wt % > 10", "setting": "[4]; Saquinavir FC>10, position 64 wild type", "value": 46.1, "unit": "%"}, {"measurement": "wt % > 10", "setting": "[4]; Saquinavir FC>10, position 71 wild type", "value": 29.0, "unit": "%"}, {"measurement": "wt % > 10", "setting": "[4]; Saquinavir FC>10, position 73 wild type", "value": 39.4, "unit": "%"}, {"measurement": "wt % > 10", "setting": "[4]; Saquinavir FC>10, position 77 wild type", "value": 49.5, "unit": "%"}, {"measurement": "wt % > 10", "setting": "[4]; Saquinavir FC>10, position 84 wild type", "value": 24.9, "unit": "%"}, {"measurement": "wt % > 10", "setting": "[4]; Saquinavir FC>10, position 93 wild type", "value": 50.7, "unit": "%"}, {"measurement": "mt % > 10", "setting": "[4]; Saquinavir FC>10, listed as 90: all samples with L90M", "value": 43.5, "unit": "%"}, {"measurement": "patients in whom resistant variants emerge", "setting": "HIV-1; after 1 year of monotherapy with 1,800 mg daily", "value": "approximately 45%"}, {"measurement": "frequency of resistance", "setting": "HIV-1; combination therapy with zidovudine, zalcitabine, and saquinavir", "value": 22, "unit": "%"}, {"measurement": "Fold Change vs. reference", "setting": "[5]; site-directed mutation N88S", "value": 0.47, "unit": "fold"}, {"measurement": "Fold Change vs. reference", "setting": "[5]; site-directed mutations L63P", "value": 1.04, "unit": "fold"}, {"measurement": "Fold Change vs. reference", "setting": "[5]; site-directed mutations L63P, N88S", "value": 1.44, "unit": "fold"}, {"measurement": "Fold Change vs. reference", "setting": "[5]; site-directed mutations M46L, L63P, V77I, N88S", "value": 1.45, "unit": "fold"}]}]}
